Counter-ions that a name gives are not always drawn. Like-named read-outs stand apart in the source and are kept apart here.
Assays:
Assay type in all cases: biochemical
recombinant PRL-1 = target: T1, recombinant PRL-1 (Homo sapiens, UniProt Q93096); assay: In vitro phosphatase assay (DiFMUP hydrolysis), PRL-1; further: test concentration or dose not given here
T1 construct: 6xHis (N, cleaved yes); made in house; host or cells: E. coli One Shot BL21 Star
T1 sequence (Q93096 1-173): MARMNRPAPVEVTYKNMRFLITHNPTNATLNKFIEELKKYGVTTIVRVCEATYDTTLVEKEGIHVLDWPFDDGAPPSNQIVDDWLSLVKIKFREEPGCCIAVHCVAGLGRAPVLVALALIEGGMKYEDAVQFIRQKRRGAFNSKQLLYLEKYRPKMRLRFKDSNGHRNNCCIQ

recombinant PRL-2 = target: T2, recombinant PRL-2 (Homo sapiens, UniProt Q12974); assay: In vitro phosphatase assay (DiFMUP hydrolysis), PRL-2;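 further: PRL-2 activity read as DiFMUP hydrolysis after 20 min at room temperature with drug, enzyme first pre-reduced at 4 °C for 20 min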
T2 construct: 6xHis (N, cleaved yes); made in house; host or cells: E. coli One Shot BL21 Star
T2 sequence (Q12974 1-167): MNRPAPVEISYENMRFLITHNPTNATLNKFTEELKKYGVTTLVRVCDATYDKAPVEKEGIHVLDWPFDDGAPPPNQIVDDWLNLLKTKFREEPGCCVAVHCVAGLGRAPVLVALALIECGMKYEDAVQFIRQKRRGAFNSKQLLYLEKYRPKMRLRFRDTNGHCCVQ

recombinant PRL-3 = target: T3, recombinant PRL-3 (Homo sapiens, UniProt O75365); assay: In vitro phosphatase assay (DiFMUP hydrolysis), PRL-3; further: test concentration or dose not given here
T3 construct: 6xHis (N, cleaved yes); made in house; host or cells: E. coli One Shot BL21 Star
T3 sequence (O75365 whole entry): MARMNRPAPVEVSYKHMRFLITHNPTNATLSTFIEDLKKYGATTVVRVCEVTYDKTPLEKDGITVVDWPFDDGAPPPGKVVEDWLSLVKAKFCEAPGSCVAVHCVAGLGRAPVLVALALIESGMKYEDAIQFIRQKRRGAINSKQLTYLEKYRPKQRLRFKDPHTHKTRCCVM

[1] = FDA-approved drug screen, activity compared to DMSO
[2] = FDA-approved drug screen, compared to DMSO

Compound	% Phosphatase Activity (compared to DMSO) PRL-1 (recombinant PRL-1; [2]) [%]	% Phosphatase Activity (compared to DMSO) PRL-2 (recombinant PRL-2; [2]) [%]	% Phosphatase Activity (compared to DMSO) PRL-3 (recombinant PRL-3; [2]) [%]	also measured
C[C@@H]1CCN(C(=O)CC#N)C[C@@H]1N(C)c1ncnc2[nH]ccc12.O=C(O)CC(O)(CC(=O)O)C(=O)O [Tofacitinib (CP-690550) Citrate]	–	–	–	% Phosphatase Activity (compared to DMSO) PRL-1 (recombinant PRL-1; [1]): 109%; % Phosphatase Activity (compared to DMSO) PRL-2 (recombinant PRL-2; [1]): 91%; % Phosphatase Activity (compared to DMSO) PRL-3 (recombinant PRL-3; [1]): 104%
CCN(CC)CCNC(=O)c1c(C)[nH]c(/C=C2\C(=O)Nc3ccc(F)cc32)c1C [Sunitinib Malate]	–	–	–	% Phosphatase Activity (compared to DMSO) PRL-1 (recombinant PRL-1; [1]): 80%; % Phosphatase Activity (compared to DMSO) PRL-2 (recombinant PRL-2; [1]): 76%; % Phosphatase Activity (compared to DMSO) PRL-3 (recombinant PRL-3; [1]): 65%
Cc1onc(-c2ccccc2Cl)c1C(=O)N[C@@H]1C(=O)N2[C@@H]1SC(C)(C)[C@@H]2C(=O)O [Cloxacillin Sodium]	98	104	87	–
COc1cccc2c1C(=O)c1c(O)c3c(c(O)c1C2=O)C[C@@](O)(C(=O)CO)C[C@@H]3O[C@H]1C[C@H](N)[C@@H](O)[C@H](C)O1 [Epirubicin HCl]	78	90	58	–
CCN(CCO)CCCOc1ccc2c(Nc3cc(CC(=O)Nc4cccc(F)c4)[nH]n3)ncnc2c1 [Barasertib (AZD1152-HQPA)]	91	95	76	–
Cc1ccc(-n2nccn2)c(C(=O)N2CCN(c3nc4cc(Cl)ccc4o3)CC[C@H]2C)c1 [Suvorexant (MK-4305)]	–	–	–	% Phosphatase Activity (compared to DMSO) PRL-1 (recombinant PRL-1; [1]): 86%; % Phosphatase Activity (compared to DMSO) PRL-2 (recombinant PRL-2; [1]): 78%; % Phosphatase Activity (compared to DMSO) PRL-3 (recombinant PRL-3; [1]): 89%
CCC[S+]([O-])c1ccc2[nH]c(NC(=O)OC)nc2c1 (stereo not drawn) [Albendazole Oxide]	93	100	95	–
Cn1cc(C2=C(c3cn(C4CCN(Cc5ccccn5)CC4)c4ccccc34)C(=O)NC2=O)c2ccccc21 [Enzastaurin (LY317615)]	82	76	82	–
S-Ruxolitinib (INCB018424)	113	127	104	–
CCN(CC)CCNC(=O)c1c(C)[nH]c(/C=C2\C(=O)Nc3ccc(F)cc32)c1C [Sunitinib]	–	–	–	% Phosphatase Activity (compared to DMSO) PRL-1 (recombinant PRL-1; [1]): 67%; % Phosphatase Activity (compared to DMSO) PRL-2 (recombinant PRL-2; [1]): 42%; % Phosphatase Activity (compared to DMSO) PRL-3 (recombinant PRL-3; [1]): 77%
C#C[C@]1(OC(C)=O)CC[C@H]2[C@@H]3CCC4=C[C@@H](OC(C)=O)CC[C@@H]4[C@H]3CC[C@@]21C [Ethynodiol diacetate]	93	112	88	–
CCCCOc1cc(C(=O)NCCN(CC)CC)c2ccccc2n1 [Dibucaine HCl]	110	108	101	–
CC(C)c1nc(N(C)S(C)(=O)=O)nc(-c2ccc(F)cc2)c1/C=C/[C@@H](O)C[C@@H](O)CC(=O)O [Rosuvastatin Calcium]	107	99	83	–
CC(=O)OCC1=C(C(=O)O)N2C(=O)[C@@H](NC(=O)Cc3cccs3)[C@H]2SC1 [Cephalothin]	97	91	82	–
CN(C)/N=N/c1[nH]cnc1C(N)=O [Dacarbazine]	92	98	76	–
COC(=O)c1ccc2c(c1)NC(=O)/C2=C(\Nc1ccc(N(C)C(=O)CN2CCN(C)CC2)cc1)c1ccccc1 [Nintedanib (BIBF 1120)]	92	106	73	–
CN1CCC[C@H]1c1cccnc1.O=C(O)C(O)C(O)C(=O)O.O=C(O)C(O)C(O)C(=O)O [Nicotine Ditartrate]	–	–	–	% Phosphatase Activity (compared to DMSO) PRL-1 (recombinant PRL-1): 95%; % Phosphatase Activity (compared to DMSO) PRL-2 (recombinant PRL-2): 96%; % Phosphatase Activity (compared to DMSO) PRL-3 (recombinant PRL-3): 96%
CC[C@H]1OC(=O)[C@H](C)[C@@H](O[C@H]2C[C@@](C)(OC)[C@@H](O)[C@H](C)O2)[C@H](C)[C@@H](O[C@@H]2O[C@H](C)C[C@H](N(C)C)[C@H]2O)[C@](C)(O)C[C@@H](C)CN(C)[C@H](C)[C@@H](O)[C@]1(C)O [Azithromycin]	94	94	101	–

Compound	% Phosphatase Activity (compared to DMSO) PRL-1 (recombinant PRL-1; [2]) [%]	% Phosphatase Activity (compared to DMSO) PRL-2 (recombinant PRL-2; [2]) [%]	% Phosphatase Activity (compared to DMSO) PRL-3 (recombinant PRL-3; [2]) [%]	also measured
COC(=O)N[C@H](C(=O)N[C@@H](Cc1ccccc1)[C@@H](O)CN(Cc1ccc(-c2ccccn2)cc1)NC(=O)[C@@H](NC(=O)OC)C(C)(C)C)C(C)(C)C.O=S(=O)(O)O [Atazanavir Sulfate]	95	83	83	–
C[C@@H]1O[C@@H](OC[C@H]2O[C@@H](Oc3c(-c4ccc(O)c(O)c4)oc4cc(O)cc(O)c4c3=O)[C@H](O)[C@@H](O)[C@@H]2O)[C@H](O)[C@H](O)[C@H]1O [Rutin]	88	82	71	–
CC(=O)N1CCN(c2ccc(OCC3COC(Cn4ccnc4)(c4ccc(Cl)cc4Cl)O3)cc2)CC1 (stereo not drawn) [Ketoconazole]	92	89	75	–
Cl.Cl.Fc1ccc(C(c2ccc(F)cc2)N2CCN(C/C=C/c3ccccc3)CC2)cc1 [Flunarizine 2HCl]	111	107	101	–
Cl.NCCCC(N)(C(=O)O)C(F)F.O (stereo not drawn) [Eflornithine hydrochloride hydrate]	91	84	103	–
NNC(=O)c1ccncc1.Nc1ccc(C(=O)O)c(O)c1 [Pasiniazid]	91	97	82	–
C[C@]1(O)C[C@@H](c2nc(-c3ccc4ccc(-c5ccccc5)nc4c3)c3c(N)nccn32)C1 [OSI-906 (Linsitinib)]	79	96	77	–
CCC(=O)O[C@@H](O[P@](=O)(CCCCc1ccccc1)CC(=O)N1C[C@H](C2CCCCC2)C[C@H]1C(=O)[O-])C(C)C.[Na+] [Fosinopril Sodium]	91	69	80	–
CC[C@H]1CN2CC[C@H]1C[C@@H]2[C@@H](O)c1ccnc2ccc(OC)cc12 [Hydroquinidine]	105	120	92	–
CN(C)[C@@H]1C(O)=C(C(N)=O)C(=O)[C@@]2(O)C(O)=C3C(=O)c4c(O)ccc(Cl)c4[C@@H](O)[C@H]3C[C@@H]12 [Demeclocycline HCl]	90	86	67	–
O=C1NC(=O)[C@@H](c2cn3c4c(cccc24)CCC3)[C@@H]1c1c[nH]c2ccccc12 [Tivantinib (ARQ 197)]	–	–	–	% Phosphatase Activity (compared to DMSO) PRL-1 (recombinant PRL-1; [1]): 95%; % Phosphatase Activity (compared to DMSO) PRL-2 (recombinant PRL-2; [1]): 83%; % Phosphatase Activity (compared to DMSO) PRL-3 (recombinant PRL-3; [1]): 90%
CN1CCC(=C2c3ccccc3CCc3sccc32)CC1.O=C(O)CC(O)C(=O)O [Pizotifen Malate]	114	109	95	–
CC1(COc2ccc3c(c2)ncn3-c2ccc3cccc(N4CCC(N)CC4)c3n2)COC1 [Crenolanib (CP-868596)]	117	115	105	–
COc1cc2nccc(Oc3ccc(NC(=O)NC4CC4)c(Cl)c3)c2cc1C(N)=O [Lenvatinib (E7080)]	96	85	87	–
C[C@]12CC[C@H](O)CC1=CC[C@@H]1[C@@H]2CC[C@]2(C)C(n3cnc4ccccc43)=CC[C@@H]12 [Galeterone]	90	98	96	–
CC(C)(CO)[C@@H](O)C(=O)NCCCO [D panthenol]	93	80	90	–
CCOC(=O)[C@H](CCc1ccccc1)N[C@H]1CS[C@H](c2cccs2)CN(CC(=O)O)C1=O [Temocapril HCl]	–	–	–	% Phosphatase Activity (compared to DMSO) PRL-1 (recombinant PRL-1; [1]): 91%; % Phosphatase Activity (compared to DMSO) PRL-2 (recombinant PRL-2; [1]): 93%; % Phosphatase Activity (compared to DMSO) PRL-3 (recombinant PRL-3; [1]): 73%
Cc1cncc(CN2CCC(=C3c4ccc(Cl)cc4CCc4cccnc43)CC2)c1.O=C(O)/C=C/C(=O)O [Rupatadine Fumarate]	92	100	98	–

— PMC8119466, “A screen of FDA-approved drugs identifies inhibitors of protein tyrosine phosphatase 4A3 (PTP4A3 or PRL-3)” (Scientific Reports, 2021)
